Columns and labels:
[1] = test system: chorioallantoic membrane (CAM); assay: In vivo assay on chorioallantoic membrane (CAM), VEGF165-induced neovascularisation; parameters: species or system hen; settings: day 14, VEGF165 alone = 100
Experimental: In Vivo Assays on Chorioallantoic Membrane (CAM)
42 fertilised hens' eggs were disinfected with a 20% ethanol solution and incubated at a temperature of 37-38° C. and a humidity of 40-60% in a rotary egg incubator. The eggs were positioned horizontally and incubated for the next 11 days to promote embryo development.
On day 11, the position of the CAM was identified by candling for 36 eggs, the air chamber was removed, and slits made in the shell in order to position sterile paper filters saturated with the effectors at different concentrations (V=2.5 uL) on the CAM. On day 14, CAMs were photographed with a stereomicroscope (Carl Zeiss Vision GmbH). Quantitative analysis was conducted (count of vessels leading from the filter) by skeletonizing the images and using AngioTool64 0.6a software, and the percentage of neovascularisation at the various concentrations of effectors was determined (Table 2).

[2] = test system: rat aorta rings; assay: Ex vivo assay of anti-angiogenic activity on rat aorta rings (VEGF-induced sprouting); type: cell-based; settings: VEGF 30 ng/mL, compound 100 μM, counted after 6 days' incubation; VEGF alone 17 ± 4
Experimental: Ex Vivo Assays of Anti-Angiogenic Activity on Rat Aorta Rings
Thoracic aortas obtained from 5- to 10-week-old male rats were cut into rings measuring about 1 mm. The rings were placed on the base of a 24-well plate (positioning the luminal axis parallel to the base of the well), and incubated with a fibrin-polymerising solution. After 5 min, VEGF (30 ng/mL) was added to the wells in an appropriate culture medium in the presence or absence of the compounds according to the invention at the concentration of 100 μM. The medium was changed three times a week as from day 3. The angiogenic response was measured by counting the number of new vessels that sprouted over time (Table 1). The endothelial filaments were counted after 6 days' incubation.

[3] = test system: neutrophil and macrophage recruitment; assay: In vivo anti-inflammatory activity test, P. aeruginosa RP73 lung infection, BALF cell analysis; parameters: species or system C57Bl/6N mice; settings: 12 mg/kg subcutaneous daily, BALF six days after infection, compared with carrier only
Experimental: In Vivo Anti-Inflammatory Activity Test Immunocompetent C57Bl/6N male mice (8-10 weeks) were infected with strains of P. aeruginosa RP73 (4-6×10^5 CFU, Colony Forming Units), incorporated in agar microbeads. The microbeads were prepared by following the procedures described in the literature (Bayes H K, Ritchie N, Irvine S, Evans T J. A murine model of early Pseudomonas aeruginosa lung disease with transition to chronic infection. Sci Rep. 2016 Nov. 2; 6:35838. doi: 10.1038/srep35838), and they were administered to the mice by intratracheal injection. Subcutaneous administration of the compounds according to the invention at the concentration of 12 mg/kg, or of the carrier, was conducted on the mice 18 hours before inoculation of the bacterium, and repeated daily for 6 days. The general state of health of the mice was analysed once or twice a day throughout the duration of the experiment. Six days after infection, the mice were euthanised by carbon dioxide inhalation. Bronchoalveolar lavage fluid analysis (BALF) indicated a significant reduction in the number of neutrophils in the treated mice compared with those treated with the carrier only.

[4] = VEGF165 0.1 ug + compound 0.0001 ug on filter
[5] = VEGF165 0.1 ug + compound 0.001 ug on filter
[6] = VEGF165 0.1 ug + compound 0.01 ug on filter
[7] = VEGF165 0.1 ug + compound 0.1 ug on filter
[8] = VEGF165 0.1 ug + compound 1 ug on filter

Row | Compound | Vascularisation (%) [1, 4] [%] | Vascularisation (%) [1, 5] [%] | Vascularisation (%) [1, 6] [%] | Vascularisation (%) [1, 7] [%] | Vascularisation (%) [1, 8] [%] | Endothelial filaments (standardised for the number of rings) [2] | Macrophages (%) [3] [%] | Neutrophils (%) [3] [%] | Total cells (%) [3] [%]
1 | CC(C)(C)c1cc(NC(=O)CCN=C(N)N)c(SCCc2ccccc2)c(NC(=O)CCN=C(N)N)c1 [IRI-N-19001, N,N′-(5-(tert-butyl)-2-(phenethylthio)-1,3-phenylene)bis(3-((diaminomethylene)amino)propanamide)] | 45 | 37 | 33 | 26 | 10 | 1.0 ± 0.4 | −10 ± 3 | −61 ± 5 | −55 ± 12
2 | CC(C)(C)c1cc(NC(=O)CCN=C(N)N)c(SCc2ccc3ccccc3c2)c(NC(=O)CCN=C(N)N)c1 [IRI-N-19004, N,N′-(5-(tert-butyl)-2-((naphthalen-2-ylmethyl)thio)-1,3-phenylene)bis(3-((diaminomethylene)amino)propanamide)] | 38 | 33 | 24 | 19 | 8 | 1.2 ± 0.5 | −5 ± 4 | −58 ± 8 | −56 ± 8
3 | CC(C)(C)c1cc(NC(=O)CCCN=C(N)N)c(SCCc2ccccc2)c(NC(=O)CCCN=C(N)N)c1 [IRI-N-19025, N,N′-(5-(tert-butyl)-2-(phenethylthio)-1,3-phenylene)bis(4-((diaminomethylene)amino)butanamide)] | – | – | – | – | – | 1.9 ± 1.1 | −8 ± 5 | −55 ± 9 | −50 ± 10
4 | N,N′-(2-(benzylthio)-5-(tert-butyl)-1,3-(phenylene)bis(3-((diaminomethylene)amino) propanamide) [IRI-N-19002] | 48 | 42 | 36 | 31 | 13 | 1.4 ± 0.5 | −9 ± 4 | −60 ± 6 | −54 ± 9
